Test system: C. maltaromaticum strains (CB1, CB2, CB3, LV17, UAL26, ATCC 35586 and ATCC43225)
Test: Antibiotic resistance, overall statement for the strains tested
Format: cell-based, Carnobacterium maltaromaticum
Conditions: overall statement on Table 3
Source text: The strains specified in this GRAS document (e.g., Carnobacterium maltaromaticum strains CB1, CB2, CB3, LV17, UAL26, ATCC 35586 AND ATCC43225) have been tested for their resistance to 27 antibiotics (Table 3; Griffiths Labs, 2004).

Row | Molecule | Sensitivity of the C. maltaromaticum strains tested, overall
1 | CC[C@H]1OC(=O)[C@H](C)[C@@H](O[C@H]2C[C@@](C)(OC)[C@@H](O)[C@H](C)O2)[C@H](C)[C@@H](O[C@@H]2O[C@H](C)C[C@H](N(C)C)[C@H]2O)[C@](C)(O)C[C@@H](C)C(=O)[C@H](C)[C@@H](O)[C@]1(C)O [Erythromycin] | sensitive
2 | O=C(N[C@H](CO)[C@H](O)c1ccc([N+](=O)[O-])cc1)C(Cl)Cl [Chloramphenicol] | sensitive
3 | CCN[C@@H]1C[C@H](N)[C@@H](O[C@H]2OC(CN)=CC[C@H]2N)[C@H](O)[C@H]1O[C@H]1OC[C@](C)(O)[C@H](NC)[C@H]1O [Netilmicin] | sensitive
4 | Gentamicin | sensitive
5 | Amoxicillin + clavulanic acid | sensitive
6 | CO[C@H]1/C=C/O[C@@]2(C)Oc3c(C)c(O)c4c(O)c(c(/C=N/N5CCN(C)CC5)c(O)c4c3C2=O)NC(=O)/C(C)=C\C=C\[C@H](C)[C@H](O)[C@@H](C)[C@@H](O)[C@@H](C)[C@H](OC(C)=O)[C@@H]1C [Rifampin] | sensitive
7 | O=C(O)c1cn(C2CC2)c2cc(N3CCNCC3)c(F)cc2c1=O [Ciprofloxacin] | sensitive
8 | NC[C@H]1O[C@H](O[C@H]2[C@H](O)[C@@H](O[C@H]3O[C@H](CO)[C@@H](O)[C@H](N)[C@H]3O)[C@H](N)C[C@@H]2N)[C@H](N)C[C@@H]1O [Tobramycin] | sensitive

Source: patent publication US20050153033A1, “Lactic acid bacteria for the treatment of food” (priority 2003, published 2005)
